Tested on: postpartum sows
Experiment: Single timed injection 96 hours post-weaning and single timed insemination without estrus detection in postpartum sows (Example 3)
Type: in vivo, swine
Conditions: 50 mcg at 96 hours post-weaning
Method: Approximately 170 postpartum sows were randomly divided into two equal groups comprised of controls and treated. Following weaning, the controls were detected for estrus and bred following the normal standard operating procedures for the farms on which they resided. The treated sows received a 50 mcg dose of deslorelin in SAIB at 96 hours post-weaning and were bred with a single insemination 28+/−2 hours later with no regard to estrus detection. The sows were examined for pregnancy by ultrasound at 21 days and slaughtered around 28 days post breeding. The entire reproductive tract was removed and corpora lutea and embryos were counted.

**Q.** What does the source list for `CCNC(=O)[C@@H]1CCCN1C(=O)[C@H](CCCN=C(N)N)NC(=O)[C@H](CC(C)C)NC(=O)[C@@H](Cc1c[nH]c2ccccc12)NC(=O)[C@H](Cc1ccc(O)cc1)NC(=O)[C@H](CO)NC(=O)[C@H](Cc1c[nH]c2ccccc12)NC(=O)[C@H](Cc1cnc[nH]1)NC(=O)[C@@H]1CCC(=O)N1` [Deslorelin, deslorelin]?
**A.** Sows Pregnant (single insemination 28+/-2 hours later, 84 in group): 60; Embryo Survival (slaughter around 28 days post breeding): 64%
